This note sets out measurements from PubChem BioAssay (NCI).

Each structure is given as a SMILES string. “And” between values parts separate entries of the source, which are not always exact repeats. Identical values can stand only once.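 1) Cells in 96-well plates. 2) Compound, 48 h, 5 concentrations. 3) Linear interpolation between surrounding doses. 4) Unreached endpoint = highest concentration. The concentration for 50% growth inhibition is given as GI50. Definition used: TGI = concentration required for complete inhibition of growth.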

What all share (assay): NCI-60 cell line screen, 48 h
For assay [1], the system named is CCRF-CEM leukemia.
Assay [2] deals with HOP-92 NSCLC.
Assay [3] concerns RPMI-8226 leukemia.
Assay [4] concerns SF-268 CNS.
Assay [5] deals with SF-539 CNS.
In assay [6] the test system is SK-MEL-28 melanoma.
The test system of assay [7] is SK-MEL-5 melanoma.
Assay [8] deals with SW-620 colon.
For assay [9], the system named is UACC-257 melanoma.
Assay [10] concerns UO-31 renal.

In the case of `Nc1ccccc1C(=O)NC(=O)Nc1ccc(Oc2ncc(Br)cn2)c(Cl)c1`, the GI50 in assay [1] is 0.0249 µM and < 0.0246 µM; in [2], 0.303 µM; in assay [7] it was 0.00688 µM; in [8], 0.0181 µM. Also, the TGI in assay [1] amounted to 1.9 µM; in [2], 6.66 µM; in assay [3] it was 29.6 µM; in assay [4], 18.9 µM; in assay [5], 0.0204 µM; in [6] it was 18.3 µM. The TGI in [7] amounted to 1.71 µM; in assay [8] it was 26.3 µM; in assay [9], 25.3 µM; in assay [10], 9.03 µM.
For the compound `N#C/C(=C\c1ccccc1)C(NO)Nc1ccccc1` (centres undefined), the TGI in assay [1], in assay [2], in assay [3], in assay [4], in [5] and in assay [6] was above 100 µM in each case. Besides, the TGI in assay [7], in [8], in assay [9] and in assay [10] was above 100 µM throughout.
As for `CCc1nc2cc(/C=C/C(=O)NO)ccc2c(=O)n1CCc1ccc(OC)cc1`, the GI50 in assay [1] was 3.17 µM; in [2], 1.9 µM; in assay [3], 2.38 µM; in [4], 2.44 µM; in [5], 1.91 µM; in assay [6], 3.31 µM. Further, the GI50 is 1.96 µM in assay [7], 1.93 µM in assay [8], 2.93 µM in assay [9] and 1.5 µM in [10]. The TGI in assay [1] was above 100 µM; in [2], 5.7 µM; in assay [3] it was 56.1 µM; in [4], 13.1 µM; in assay [5] it was 6.29 µM; in assay [6], 15.1 µM. Moreover, the TGI in [7] is 5.09 µM; in assay [8], 13 µM; in [9], 9.33 µM; in [10] it was 5.13 µM.
On to `Cc1c(C)c2c(c(C)c1OCC(=O)O)CC[C@@](C)(CCC[C@@H](C)CCC[C@@H](C)CCCC(C)C)O2`, for which the GI50 in [1] was 27.1 µM; in assay [2], 58.6 µM; in assay [3], 56.3 µM; in [4], 87.8 µM; in [5] it was 78.1 µM; in assay [6] it was 62.6 µM. Moreover, the GI50 in [7] is 58 µM; in assay [8] it was 81.9 µM; in [9] it was 77.2 µM; in assay [10], 84.1 µM. For the same compound, the TGI in assay [1] was found to be 189 µM; in assay [2], 137 µM; in assay [3], 214 µM; in [4], 196 µM; in [5], 153 µM; in [6], 129 µM. Moreover, the TGI stood at 122 µM in assay [7], 218 µM in [8], 183 µM in [9] and 152 µM in assay [10].
Turning to `COc1ccc(-c2n[nH]nc2-c2cc(OC)c3c(c2)OCO3)cc1`, the GI50 was 0.0264 µM in assay [1]; 0.16 µM in assay [2]; 0.0319 µM in assay [3]; 0.087 µM in assay [4]; 0.0154 µM in [5]; 0.0444 µM in [6]. Moreover, the GI50 in [7] was 0.0267 µM; in assay [8] it was below 0.0117 µM; in assay [9] it was 20.5 µM; in [10] it was 0.0505 µM. Further, the TGI in assay [1] was 14.2 µM; in assay [2], 22.2 µM; in assay [3], 32.5 µM; in assay [4], above 62.3 µM; in assay [5], 0.0449 µM; in assay [6], above 89.7 µM. Also, the TGI in [7] was 0.899 µM; in [8] it was above 100 µM; in assay [9], above 100 µM; in assay [10], 73 µM.
